Converted amounts (≈) assume the structure as drawn.
settings: buffer; pH 7.4; 200.0 µM

First: O=C(/C(=C/c1cccnc1)n1ccnc1)c1ccc(Cl)cc1Cl
Second: CCc1ccc(OC(=O)c2cccnc2)cc1
The solubility kinetic of the first is higher: > 51.6 µg/mL for the first, 26.8 µg/mL (≈ 118 µM) for the second.

Going from `Nc1cc(Cl)ccc1C(=O)OCC(=O)NC1CCCCC1` to `O=C(O)[C@@H]1CCCN1C(=O)COc1ccc2c3c(c(=O)oc2c1)CCC3`, the solubility kinetic rises from 0.5 µg/mL (≈ 1.61 µM) to > 53.6 µg/mL.

`Cc1ccc(C(=O)NCC(=O)N2CCCN(C)CC2)cc1C` and `Cc1ccc(NC(=O)C(=O)NCCCN2CCCC2=O)c(C)c1` cannot be ordered by solubility kinetic: > 45.5 µg/mL for the first, > 47.6 µg/mL for the second.

Going from `CC(C)C(=O)Nc1ncc(Cc2ccccc2Cl)s1` to `Cc1cnc(NC(=O)CC2OC(=O)c3ccccc32)s1` (stereo unspecified), the solubility kinetic rises from < 0.3 µg/mL to 6.5 µg/mL (≈ 22.5 µM).

Compared with `COc1ccc2oc(C(=O)OCC(=O)N3C(C)CCCC3C)c(C)c2c1` (stereo unspecified), `O=C(COC(=O)c1ccc([N+](=O)[O-])o1)Nc1ccc2c(c1)OCO2` is 1.9-fold lower in solubility kinetic: 31.9 µg/mL (≈ 88.8 µM) for the first, 16.9 µg/mL (≈ 50.6 µM) for the second.

Compared with `Cc1cc(=O)cc(C)n1-c1ccccc1N`, `Cc1cc(C)c(S(=O)(=O)Nc2ccccn2)c(C)c1` is 6.6-fold lower in solubility kinetic: 31.1 µg/mL (≈ 145 µM) for the first, 4.7 µg/mL (≈ 17 µM) for the second.

Compared with `Cc1cc(C)nc(NS(=O)(=O)c2ccc(CC(C)C)cc2)c1`, `Cc1ccc(S(=O)(=O)NCCNC(=O)c2ccc(C)nc2)cc1` is higher in solubility kinetic: 28.9 µg/mL (≈ 90.8 µM) for the first, > 50 µg/mL for the second.

`Cc1ccc(S(=O)(=O)CCC(=O)Nc2ccccc2C)cc1` and `O=C(CCCc1ccccc1)Nc1cccc([N+](=O)[O-])c1` are within 1.5-fold of each other in solubility kinetic: 21.9 µg/mL (≈ 69 µM) for the first, 26.4 µg/mL (≈ 92.9 µM) for the second.

First: CC(=O)Nc1ccc2nc(-c3ccco3)[nH]c2c1
Second: Cc1cccc(NC(=O)c2ccc3[nH]c(=O)c(=O)[nH]c3c2)n1
The solubility kinetic of the first is higher: > 36.2 µg/mL for the first, 17.7 µg/mL (≈ 59.7 µM) for the second.

Compared with `Nc1ccc(CCc2ccc(N)cc2)cc1`, `O=C(Nc1ccc(CN2CCOCC2)cc1)c1ccc(F)cc1` is higher in solubility kinetic: 22 µg/mL (≈ 104 µM) for the first, > 47.2 µg/mL for the second.

`COc1ccc(CCNCc2ccsc2)cc1OC` and `COCCCNC(=S)Nc1cccc2ncccc12` are within 1.5-fold of each other in solubility kinetic: 37.1 µg/mL (≈ 134 µM) for the first, 40.9 µg/mL (≈ 149 µM) for the second.

Compared with `CC(=O)N(c1cccc(Br)c1)c1nc(C)cc(C)c1C#N`, `Cc1cnc(C(=O)OCc2c(C)cc(C(C)(C)C)cc2C)cn1` is lower in solubility kinetic: > 51.6 µg/mL for the first, 9 µg/mL (≈ 28.8 µM) for the second.

`CN1CCN(C(=O)NCC23CC4CC(CC(C4)C2)C3)CC1` and `CC1CC(C)CN(C(=O)CSc2nnc(N)s2)C1` (stereo unspecified) cannot be ordered by solubility kinetic: > 43.7 µg/mL for the first, > 43 µg/mL for the second.

Going from `COCCn1cc(C(=S)N2CCCCC2)c2ccccc21` to `CC(C)c1ccccc1OCC(=O)N1CCCCCCC1`, the solubility kinetic falls from > 45.4 µg/mL to 18.8 µg/mL (≈ 65 µM).

`COc1cc(C)ccc1S(=O)(=O)NC1CC(C)(C)NC(C)(C)C1` and `CCN(CC)S(=O)(=O)c1ccc(OC)c(N)c1` are within 1.5-fold of each other in solubility kinetic: 35 µg/mL (≈ 103 µM) for the first, 35.1 µg/mL (≈ 136 µM) for the second.

`O=C(CSc1nc2ncc(Cl)cc2[nH]1)N1CCOCC1` and `O=C(CCl)c1cc2c3c(c1)CC(=O)N3CCC2` cannot be ordered by solubility kinetic: > 46.9 µg/mL for the first, > 37.5 µg/mL for the second.

`CN(C)/C=C(\c1cnc(Cl)s1)S(=O)(=O)c1ccccc1` and `O=S(=O)(Nc1ccccn1)c1cccs1` cannot be ordered by solubility kinetic: 43.8 µg/mL (≈ 133 µM) for the first, > 36 µg/mL for the second.

Going from `Cc1nccn1CC(=O)N/N=C/c1cc(Br)cs1` to `Cc1cccc(NC(=O)Cn2cc(C=O)c3ccccc32)c1`, the solubility kinetic falls from > 49.1 µg/mL to 0.9 µg/mL (≈ 3.08 µM).

`NC(=S)Nc1ccc(C(F)(F)F)cc1Cl` and `O=C(Cc1ccc(Cl)cc1)OCC(=O)c1ccc[nH]1` are within 1.5-fold of each other in solubility kinetic: 33.5 µg/mL (≈ 132 µM) for the first, 27.3 µg/mL (≈ 98.3 µM) for the second.

`O=C(O)c1ccc(NC(=O)C2C3CCC(O3)C2C(=O)O)cc1` (stereo unspecified) and `O=C(Nc1ccc(Cl)cc1)C1CCN(C(=O)c2ccco2)CC1` cannot be ordered by solubility kinetic: > 45.8 µg/mL for the first, > 49.9 µg/mL for the second.

First: Cc1ccc(-n2c(-c3ccc(Cl)cc3)c[n+]3c2CCC3)cc1.[Br-]
Second: Cc1ccc(C2=NOC3(CC(=O)N(c4ccc(C)cc4)C3=O)C2)cc1 (stereo unspecified)
The solubility kinetic of the first is higher: > 58.5 µg/mL for the first, 12.6 µg/mL (≈ 37.7 µM) for the second.

`c1ccc2sc(C3CCNCC3)nc2c1` and `COC(=O)c1cc(N2CCNCC2)nc2ccccc12.Cl` cannot be ordered by solubility kinetic: > 32.7 µg/mL for the first, 39.9 µg/mL for the second.

Going from `O=[N+]([O-])c1ccc(N2CCCCC2)nc1N1CCCCC1` to `c1ccc(CN2CCN(c3cnc4ccccc4n3)CC2)cc1`, the solubility kinetic rises from 5.3 µg/mL (≈ 18.3 µM) to 37.7 µg/mL (≈ 124 µM) (7.1-fold).

Going from `CCCc1nc2oc3c(Cl)ncnc3c2c2c1CCCC2` to `CCNC(=O)c1ccccc1-c1nc(-c2ccccc2)no1`, the solubility kinetic rises from < 0.2 µg/mL to 35.4 µg/mL (≈ 121 µM).

Compared with `COc1ccccc1CNC(=O)CN1C(=O)NC(Cc2ccccc2)(c2ccccc2)C1=O` (stereo unspecified), `COc1ccc(C(=O)NCCn2cc(SCC(N)=O)c3ccccc32)cc1` is 1.5-fold higher in solubility kinetic: 32.9 µg/mL (≈ 74.2 µM) for the first, 50.6 µg/mL (≈ 132 µM) for the second.

Going from `COCCNc1c(-c2ccc(OC)cc2)nc2ccc(Cl)cn12` to `O=C1c2ccccc2S(=O)(=O)N1Cc1c(F)cccc1Cl`, the solubility kinetic falls from 38.4 µg/mL (≈ 116 µM) to < 0.7 µg/mL.

Going from `CC1CCCN(Cc2csc(N)n2)C1` (stereo unspecified) to `Cc1cc(N2CC(C)OC(C)C2)n2cc(-c3ccccc3)nc2n1` (stereo unspecified), the solubility kinetic falls from > 31.7 µg/mL to 15.4 µg/mL (≈ 47.8 µM).

`CC(=O)Nc1ccc(OCCC[n+]2ccccc2)cc1.[Cl-]` and `CC1C(=O)Nc2ccccc2N1C(=O)c1ccc(O)cc1` (stereo unspecified) cannot be ordered by solubility kinetic: > 46 µg/mL for the first, > 42.3 µg/mL for the second.

`O=c1[nH]cc(N(CCO)CCO)c(=O)[nH]1` and `O=C1NC(=Nc2cccc([N+](=O)[O-])c2)SC1(CO)CO` cannot be ordered by solubility kinetic: > 32.3 µg/mL for the first, 41.2 µg/mL (≈ 139 µM) for the second.

First: NC(=O)NC(=O)CN1c2cccc3cccc(c23)S1(=O)=O
Second: CC(=NCCc1ccccc1)c1c(O)n(C)c(=O)n(C)c1=O
The solubility kinetic of the first is 10-fold lower: 3.7 µg/mL (≈ 12.1 µM) for the first, 37.2 µg/mL (≈ 123 µM) for the second.

In the case of `COc1ccc(NC(=O)[C@@H](NS(=O)(=O)c2cccc(Cl)c2)C(C)C)cc1S(=O)(=O)N1CCOCC1`, the solubility kinetic is reported as > 81.9 µg/mL.
